In paper PMC11035696, “Prospective de novo drug design with deep interactome learning” (Nature Communications, 2024):
Values joined by “and” are separate entries in the source; they are usually repeats but may differ in a detail not shown here. Identical values can stand only once.

Legend:
[1] = molecular target: T1, retinoid X receptor (RXR)α (Homo sapiens, UniProt P19793); experiment: Nuclear receptor selectivity profiling, hybrid reporter gene assay, RXRα; format: cell-based
T1 construct: RXRα (pFA-CMV-h RXRα-LBD[105], 1 μM Bexarotene); expressed in transfected cells; host or cells: HEK293T
T1 sequence (P19793 227-458 limits assumed): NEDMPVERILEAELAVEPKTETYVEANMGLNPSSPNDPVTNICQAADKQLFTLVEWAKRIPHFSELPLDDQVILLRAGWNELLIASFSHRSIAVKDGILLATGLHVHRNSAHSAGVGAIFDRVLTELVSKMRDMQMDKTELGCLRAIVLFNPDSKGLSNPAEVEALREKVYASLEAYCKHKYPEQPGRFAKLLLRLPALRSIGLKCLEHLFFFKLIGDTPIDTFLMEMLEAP
Procedure: (§1) Compounds 1–3 were characterized in a hybrid reporter gene assay for their agoniztic effect on human nuclear receptors PPARα/γ/δ, RXRα, FXRα, RARα in HEK293T cells. Compound 1 was tested in an isothermal titration calorimetry (ITC) assay to measure direct binding affinity to the ligand-binding domain of PPARγ. ADME properties were measured in standardized assays at Roche.
(§2) PPAR activation was determined in uniform Gal4-hybrid reporter gene assays for the PPARα, PPARγ and PPARδ isoforms in HEK293T cells (German Collection of Microorganisms and Cell Culture GmbH, DSMZ) which were transiently transfected with pFR-Luc (Stratagene, La Jolla, CA, USA; reporter) and pRL-SV40 (Promega, Madison, WI, USA; internal control) and one pFA-CMV-hPPAR-LBD[97] clone, coding for the hinge region and ligand binding domain of the canonical isoform of human PPARα, PPARγ, PPARδ or respectively. Cells were cultured in Dulbecco’s modified Eagle’s medium (DMEM), high glucose supplemented with 10% fetal calf serum (FCS), sodium pyruvate (1 mM), penicillin (100 U ⋅ ml^-1), and streptomycin (100 μg ⋅ ml^-1) at 37 °C and 5% CO2 and seeded in 96-well plates (3 × 10^4 cells per well). After 24 h, medium was changed to Opti-MEM without supplements and cells were transiently transfected using Lipofectamine LTX reagent (Invitrogen) according to the manufacturer’s protocol. Five hours after transfection, cells were incubated with the test compounds in Opti-MEM supplemented with penicillin (100 U ⋅ ml^-1), streptomycin (100 μg ⋅ ml^-1) and 0.1% DMSO for 16 h before luciferase activity was measured using the Dual-Glo Luciferase Assay System (Promega) according to the manufacturer’s protocol on a Tecan Spark luminometer (Tecan Deutschland GmbH, Germany). Firefly luminescence was divided by Renilla luminescence and multiplied by 1000 resulting in relative light units (RLU) to normalize for transfection efficiency and cell growth. Fold activation was obtained by dividing the mean RLU of a test compound by the mean RLU of the untreated control. All samples were tested in at least three biologically independent experiments in duplicates. For dose-response curve fitting and calculation of EC50 values, the equation “[Agonist] versus response (variable slope—four parameters)” was used in GraphPad Prism (version 7.00, GraphPad Software, La Jolla, CA, USA) with fold activation data. The reference agonizts GW7647 (PPARα)[98],[99], pioglitazone (PPARγ)[100],[101] and L165,041 (PPARδ)[102],[103] were used to validate the assays and to monitor assay performance. Nuclear receptor selectivity profiling was performed with corresponding pFA-CMV-hNR-LBD clones and suitable reference agonizts on RARα (pFA-CMV-hRARα-LBD[104], 1 μM tretinoin), LXRα (pFA-CMV-hLXRα-LBD[104], 1 μM TO901317) and RXRα (pFA-CMV-h RXRα-LBD[105], 1 μM Bexarotene).

[2] = Hepatocyte clearance, human; format: in vitro ADME; set-up: Hepatocyte clearance human: unit not given here; settings: for Hepatocyte clearance human: human hepatocytes, as printed in Table S14
Procedure: as §1
(§3) SI11Absorption Distribution Metabolism and Excretion and Toxicity Data
(§4) To assess the drug-like characteristics of the newly designed PPAR modulators, a series of tests were conducted covering various aspects of absorption, distribution, metabolism, and excretion (ADME) properties. Specifically, these assessments included the parallel artificial membrane permeability assay (PAMPA) with permeation co- […]
(§5) efficients ([…]), LogD measurements, microsomal clearance, hepatocyte clearance, P-glycoprotein (Pgp) efflux ratio and binding and the unbound free fraction. […]
(§6) Table S14: Absorption distribution metabolism and excretion (ADME) properties of compounds 1 and 2. The […]
(§7) values for […], LogD, protein binding, P-glycoprotein (Pgp) efflux ratio and permeability, and hepato-cyte clearance are presented as the mean and standard deviation, with a sample size of N = 3, i.e., 3 technical replicates each. The values for microsomal clearance and CYP-inhibition represent single point measurements.
Microsomal clearance, human (µL·min−1·mg−1 protein) ≥10 ≥10 ≥10
Microsomal clearance, mouse (µL·min−1·mg−1 protein) ≥10 ≥10 ≥10
Microsomal clearance, rat (µL·min−1·mg−1 protein) ≥10 ≥10 ≥10
Protein binding human (% free fraction) (%) - 0.21 0.42
PgP Transport mouse apical efflux ratio - 1.6 1.2
PgP Transport mouse permeability (nm·sec−1) - 15 60 […]

β2-ADRENOCEPTOR = β2-ADRENOCEPTOR (Homo sapiens, UniProt P07550); experiment: Safety off-target panel, binding; settings: single point
Sequence of UniProt P07550 (P07550 whole entry): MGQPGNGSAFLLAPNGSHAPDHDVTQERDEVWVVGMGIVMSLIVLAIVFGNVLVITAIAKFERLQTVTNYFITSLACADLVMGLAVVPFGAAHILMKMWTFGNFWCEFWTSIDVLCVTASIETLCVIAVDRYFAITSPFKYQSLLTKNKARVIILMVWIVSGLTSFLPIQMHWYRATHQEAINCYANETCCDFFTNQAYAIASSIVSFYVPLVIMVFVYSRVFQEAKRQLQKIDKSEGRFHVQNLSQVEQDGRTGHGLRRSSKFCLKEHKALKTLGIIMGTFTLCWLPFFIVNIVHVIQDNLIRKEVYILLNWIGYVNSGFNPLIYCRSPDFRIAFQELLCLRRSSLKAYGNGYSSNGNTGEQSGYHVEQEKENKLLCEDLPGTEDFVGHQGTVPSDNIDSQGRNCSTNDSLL
Description: (§8) Table S9-S12 list all targets, their species, inhibition (%) and assay type for the experiments conducted in the
(§9) off-targets. […] The numbers for mean
(§10) inhibition (%) represent single point measurements.
(§11) off-targets. […] The numbers for
(§12) mean inhibition (%) represent single point measurements.

HISTAMINE H1 RECEPTOR = HISTAMINE H1 RECEPTOR (Homo sapiens, UniProt P35367); experiment: Safety off-target panel, binding; settings: single point
Sequence of HISTAMINE H1 RECEPTOR (P35367 whole entry): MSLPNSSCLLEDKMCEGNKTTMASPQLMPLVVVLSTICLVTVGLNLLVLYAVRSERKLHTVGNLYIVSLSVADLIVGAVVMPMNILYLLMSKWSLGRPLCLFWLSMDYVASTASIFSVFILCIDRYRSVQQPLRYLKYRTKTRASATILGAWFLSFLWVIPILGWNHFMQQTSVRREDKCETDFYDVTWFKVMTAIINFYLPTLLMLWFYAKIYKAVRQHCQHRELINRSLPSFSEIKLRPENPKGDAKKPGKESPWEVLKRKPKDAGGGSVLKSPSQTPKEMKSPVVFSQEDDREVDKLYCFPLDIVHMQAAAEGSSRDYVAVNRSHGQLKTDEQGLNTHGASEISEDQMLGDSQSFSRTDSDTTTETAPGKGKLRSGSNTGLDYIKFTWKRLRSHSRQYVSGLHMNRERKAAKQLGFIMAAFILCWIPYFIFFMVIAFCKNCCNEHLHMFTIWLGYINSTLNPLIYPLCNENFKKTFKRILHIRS
Description: as §8, §9, §10, §11, §12

α2A-ADRENOCEPTOR = α2A-ADRENOCEPTOR (Homo sapiens, UniProt P08913); experiment: Safety off-target panel, binding; settings: single point
Sequence of UniProt P08913 (P08913 whole entry): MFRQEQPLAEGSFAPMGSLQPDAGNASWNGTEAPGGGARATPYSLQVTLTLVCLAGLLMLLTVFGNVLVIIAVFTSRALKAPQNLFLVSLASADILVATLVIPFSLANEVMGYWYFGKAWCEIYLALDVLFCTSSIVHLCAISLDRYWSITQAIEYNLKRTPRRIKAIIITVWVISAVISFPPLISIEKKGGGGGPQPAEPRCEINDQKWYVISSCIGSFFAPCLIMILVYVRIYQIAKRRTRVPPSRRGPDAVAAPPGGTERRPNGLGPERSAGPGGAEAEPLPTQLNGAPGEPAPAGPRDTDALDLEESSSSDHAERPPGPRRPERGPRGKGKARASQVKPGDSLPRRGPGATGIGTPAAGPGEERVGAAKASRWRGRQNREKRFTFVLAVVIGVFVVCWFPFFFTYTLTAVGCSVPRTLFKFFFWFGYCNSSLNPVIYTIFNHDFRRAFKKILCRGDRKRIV
Description: as §8, §9, §10, §11, §12

human PPARγ = molecular target: T2, human PPARγ (Homo sapiens, UniProt P37231); experiment: Gal4-hybrid reporter gene assay, PPARγ activation; format: cell-based; settings: PPARγ, compounds 1 and 2, Table 4; read-out: pEC50 (converted)
T2 construct: expressed in transfected cells; host or cells: HEK293T
T2 sequence (P37231 238-503 limits assumed): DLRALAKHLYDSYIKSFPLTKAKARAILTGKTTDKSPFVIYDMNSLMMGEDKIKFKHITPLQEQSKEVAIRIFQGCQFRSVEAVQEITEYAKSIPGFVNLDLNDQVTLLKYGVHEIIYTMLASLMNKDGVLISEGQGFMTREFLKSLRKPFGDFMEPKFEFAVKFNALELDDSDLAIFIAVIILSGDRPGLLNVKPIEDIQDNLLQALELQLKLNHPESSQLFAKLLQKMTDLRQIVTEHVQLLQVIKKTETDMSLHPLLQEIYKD
Procedure: as §1, §2

[3] = Lipophilicity (LogD pH 7.4); format: physicochemical
Procedure: as §1, §3, §4, §5, §6
as §7, with “measurements. […]” for “measurements.”

Structure (SMILES)	RXRα reporter activation, replicate values (DMSO ctrl = 1,000) ([1]; 3 µM)	RXRα reporter activation, replicate values (DMSO ctrl = 1,000) ([1]; 10 µM)	clearance rate in human hepatocytes [2] [μL·min−1 10^6 cells−1]	Hepatocyte clearance human [2]	inhibition at 10 µM (β2-ADRENOCEPTOR) [%]	inhibition at 10 µM (HISTAMINE H1 RECEPTOR) [%]	inhibition at 10 µM (α2A-ADRENOCEPTOR) [%]	EC50 (human PPARγ) [nM]	logD [3]
COc1ccc(Oc2ccc3ncn(CCOc4ccc(CCC(=O)O)cc4)c3c2)cc1 [Compound 2]	1,173 and 1,058 and 1,366	1,398 and 1,193 and 1,167	19	19	7	-6.7	4.9	2290	1.7
Cc1nnc(-c2ccc(OCCCOc3ccc(CCC(=O)O)c(F)c3)c(F)c2)s1 [Compound 1]	1,140 and 1,672 and 0,965	0,945 and 2,262 and 0,954	19	19	4	-7	-3.2	1480	1.5
